Three compounds from patent publication US9399788B2, “Method for inspecting susceptibility of bacteria or fungi to antimicrobial drug and system for use in the same” (priority 2011, dated 2016) can be followed below.

Assay [1] concerns #2 strain of Pseudomonas aeruginosa (multi-drug resistant strain). Description: MIC by method using micro-device 1 (microscope observation of growth and shape in flow channel). The assay is classed as cell-based. To be noted: for MIC: Pseudomonas aeruginosa, read-out: MIC (minimum inhibitory concentration). The procedure:
Thus, antimicrobial drug solutions were prepared.
Pseudomonas aeruginosa was pre-cultured at 37° C. for 24 hours using a Mueller-Hinton Agar (Becton, Dickinson and Company) plate. A colony was suspended in a Mueller-Hinton broth so as to have MacFarland=0.5 (OD600=0.132). As Pseudomonas aeruginosa, multi-drug resistant strains #2 and #5 (available from BML) and an S1 strain (susceptibility strain, available from BML) were used.
The antimicrobial drug solution obtained in the (2) above and the culture solution obtained in the (3) above were mixed at a volume ratio of 1 9, and 1 μL of a resultant mixture was injected into each inlet of a micro-device 1. As a control, sterile water as a substitute for the antimicrobial drug solution and the culture solution were mixed at a volume ratio of 1:9, and 1 μL of a resultant mixture was injected into an inlet of the micro-device 1. Then, the micro-device 1 was placed in a petri dish, and the petri dish was placed in an airtight container. Kimwipe (Trade Mark) containing water was placed in each of the petri dish and the airtight container. The airtight container was placed in an incubator at 37° C. and incubated for 3 hours. The relative humidity of each of the airtight container and the petri dish was 97%.
The micro-device 1 was taken out of the airtight container, and an increase or decrease in the amount of bacteria and a change in shape relative to the control in an observation area was checked by a microscope, and the MIC (minimum inhibitory concentration) was determined.

The test system is the same in assay [2]. Description: MIC by broth microdilution method according to the CLSI standards (standard method). It counts as cell-based.
Where [3] appears, read: method using the micro-device, 37° C., 3 hours incubation.

Values after ≈ are worked out from the molar mass of the structure shown.

Turning to `NCC[C@H](O)C(=O)N[C@@H]1C[C@H](N)[C@@H](O[C@H]2O[C@H](CN)[C@@H](O)[C@H](O)[C@H]2O)[C@H](O)[C@H]1O[C@H]1O[C@H](CO)[C@@H](O)[C@H](N)[C@H]1O` [AMK, Amikacin], the MIC is at least 32 µg/mL in assay [1] (setting [3]) and 64 µg/mL (≈ 109 µM) in assay [2] (Pseudomonas aeruginosa, standard method (broth microdilution, CLSI), read-out: MIC (minimum inhibitory concentration)).

For `O=C(O)c1cn(C2CC2)c2cc(N3CCNCC3)c(F)cc2c1=O` [CPFX, Ciprofloxacin], the MIC in assay [1] (setting [3]) is at least 4 µg/mL.

Regarding Imipenem/Cilastatin [IPM], the “determination based on the break point of CLSI” value in assay [1] (MIC by method using the micro-device) and in assay [2] (MIC by standard method) was “Resistance (R)” each time. In addition, the “MIC (minimum inhibitory concentration)” value came to 16 µg/mL in assay [1] (setting [3]) and 32 µg/mL in assay [2] (standard method (broth microdilution, CLSI)).
